Results as given in patent US10918746B2, “Radioactive compositions and methods for their therapeutic use” (IsoTherapeutics Group LLC, priority 2011, dated 2021).
Each block holds one compound with its values, some of them ahead of it.

What was measured:
[1] = Biolocalization two hours after delivery into a drilled hole in the femur; assay type: in vivo, Sprague Dawley rat; conditions: rat femur
Experimental: Ho-166 in 0.1M HCl was obtained from MURR. The pH was measured with pH paper showing a pH of about 1. A miniature drill was used to create a hole in the femur of an anesthetized Sprague Dawley rat. A miniature pump was used to deliver 3 μL of Ho-166 solution into the hole created by the drill. Two hours after the injection of the dose the rat was sacrificed and dissected. The amount of activity found in the site of injection was 5% of the injected dose. 52% of the dose was found in the liver and 23% of the dose was found in the rest of the bone.
A miniature drill was used to create a hole in the femur of an anesthetized Sprague Dawley rat. A miniature pump was used to deliver 2 μL of Sm-153-DOTMP solution into the hole created by the drill. Two hours after the injection of the dose the rat was sacrificed and dissected. The amount of activity found in the site of injection was 9% of the injected dose and about 20% was found in the rest of the bone. An average of 65% of the injected dose was found in the urine.

[2] = Biolocalization after injection into synovial cavity of right hind knee; assay type: in vivo, Sprague Dawley rats; conditions: Rats
Description: One method of this invention uses a therapeutically-effective quantity of the compositions of Formula (II) and Formula (III), administered in one or more locations into or near a Non-intracavitary, undesirable tissue mass (e.g. cancer) in an animal or human in need of such treatment. Another method of this invention uses a therapeutically-effective quantity of these hydroxy carbonates, administered in one or more locations into or near the synovial cavity to treat arthritis. In either method the treatment is such that a major portion of the dose remains at the site of injection (defined as greater than about 90% of the dose remaining at the site after two half-lives of the radioisotopes; more preferably greater than about 95% of the dose remaining at the site after 2 half-lives of the radioactive isotopes; and most preferably greater than about 98% of the dose remaining at the site after 2 half-lives of the radioisotopes) as determined by biolocalization data obtained by dissection of an animal (e.g. BALB/c mice or Sprague Dawley rats); wherein the values are corrected for radioactive decay. It is also important to recognize that deposition of radioactivity in non-target organs and tissues can impact the safety and efficacy of the treatment. Ideally, in mice, less than about 1% remaining in the carcass (including the contralateral femur) and less than about 0.2% in the liver plus the kidneys and, in rats, less than about 1% in the skeletal structure and less than about 0.2% in the liver plus the kidneys. In the case of mice (injection into the gastrocnemius muscle of the right hind leg is used as a model for Non-Intracavitary tumors), all tissues, including the whole carcass, and bedding were collected such that 100% of the radioactivity was accounted for. In the case of rats (injections were directly into the synovial cavity), the size of the animal precluded counting the entire carcass. Therefore samples of blood, muscle, and bone (contralateral femur) were collected and the total masses of those tissues were calculated. The tissue masses were calculated based on rat body weight using equations fitted to data in the literature [Henry H. Donaldson, The Rat: Reference Tables and Data for the Albino Rat and the Norway Rat, (1915)].
Six male Sprague Dawley rats, under Isoflurane anesthesia, were each injected with 20 μL of the Composition prepared according to the procedure of Example 1 into the synovial cavity of the right hind knee using a ⅓ cc insulin syringe. The dose was deposited into the cavity via needle insertion through the skin. The rats were individually housed in cages with absorbent paper under a wire mesh bottom. […]
Due to the size of the animals, the carcass was not collected and measured as was done for the mice. The % ID in the skeletal structure, muscular structure and blood in the body were calculated from the activity in samples of those tissues (left femur, left thigh, blood) and rat body weight using equations fitted to data in the literature as was described earlier.
Samples were counted for radioactivity on a PerkinElmer Wizard automated NaI well detector. The data, shown below in Table 1, indicate the average percent injected dose in each tissue/sample.

amount of activity found in the site of injection [1]: 5 % of the injected dose
dose found in the liver ([1]; two hours after injection): 52 % of the dose
dose found in the rest of the bone ([1]; two hours after injection): 23%
Compound: [166Ho+3].[Cl-].[Cl-].[Cl-] [Example G, Ho-166 Chloride]

Average % ID, Calculated Blood ([2]; 14 days): 0.0 % ID
Average % ID, Calculated Muscle ([2]; 14 days): 0.3 % ID
Average % ID, Calculated Skeleton ([2]; 14 days): 28.0 % ID
Average % ID, Heart ([2]; 14 days): 0.0 % ID
Average % ID, Kidney ([2]; 14 days): 0.4 % ID
Average % ID, Leg (injection site) ([2]; 14 days): 31.2 % ID
Average % ID, Lg. Intestine ([2]; 14 days): 0.0 % ID
Average % ID, Liver ([2]; 14 days): 0.4 % ID
Average % ID, Lung ([2]; 14 days): 0.0 % ID
Average % ID, Sm. Intestine ([2]; 14 days): 0.0 % ID
Average % ID, Spleen ([2]; 14 days): 0.0 % ID
Average % ID, Stomach ([2]; 14 days): 0.0 % ID
Average % ID, Urine/Feces ([2]; 14 days): 39.5 % ID
Average % ID, Calculated Blood ([2]; 28 days): 0.0 % ID
Average % ID, Calculated Muscle ([2]; 28 days): 0.1 % ID
Average % ID, Calculated Skeleton ([2]; 28 days): 30.0 % ID
Average % ID, Heart ([2]; 28 days): 0.0 % ID
Average % ID, Kidney ([2]; 28 days): 0.3 % ID
Average % ID, Leg (injection site) ([2]; 28 days): 22.6 % ID
Average % ID, Lg. Intestine ([2]; 28 days): 0.0 % ID
Average % ID, Liver ([2]; 28 days): 0.4 % ID
Average % ID, Lung ([2]; 28 days): 0.0 % ID
Average % ID, Sm. Intestine ([2]; 28 days): 0.0 % ID
Average % ID, Spleen ([2]; 28 days): 0.0 % ID
Average % ID, Stomach ([2]; 28 days): 0.0 % ID
Average % ID, Urine/Feces ([2]; 28 days): 46.6 % ID
Compound: O=C([O-])CN(CCN(CC(=O)[O-])CC(=O)[O-])CCN(CC(=O)[O-])CC(=O)[O-].[117Sn+4].[H+] [Example K]

amount of activity found in the site of injection [1]: 9 % of the injected dose
dose found in the rest of the bone ([1]; two hours after injection): about 20%
injected dose found in the urine ([1]; two hours after injection, average): 65 % of the injected dose
Compound: O=P([O-])(O)CN1CCN(CP(=O)([O-])O)CCN(CP(=O)(O)O)CCN(CP(=O)([O-])O)CC1.[153Sm+3] [Sm-153-DOTMP]
